Inhibition data for 11 compounds are collected here from US8106055B2, “Substituted amide compounds” (Gruenenthal GmbH, priority 2007, dated 2012).

The target of assay [1] is T1, human μ opiate receptor (Homo sapiens, UniProt P35372).
T1 construct: purchased PerkinElmer Life Sciences, Zaventem, Belgium RB-HOM; host or cells: CHO-K1 cells (membrane preparation)
Description: Affinity for the human μ opiate receptor ([3H]-naloxone displacement, CHO-K1 receptor membrane preparation, SPA). It is filed as binding. Conditions: test concentration of 1 μM; read-out: μ (binding on the μ opioid receptor, % inhibition). In short, it runs like this:
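SPA, CHO-K1 hμ membranes; 1 nmol/l [3H]-naloxone; Tris-HCl 50 mmol/l + 0.06% BSA; 90 min RT; NSB with 100 μmol/l naloxone; β-counting. Readout: % inhibition of specific binding at 1 μM test compound.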

In assay [2] the target is T2, serotonin (5-HT) reuptake (Rattus norvegicus, UniProt P31652).
T2 construct: synaptosomes are freshly isolated from areas of the rat brain; from tissue; host or cells: rat brain synaptosomes (P2 fraction)
T2 sequence (P31652 whole entry): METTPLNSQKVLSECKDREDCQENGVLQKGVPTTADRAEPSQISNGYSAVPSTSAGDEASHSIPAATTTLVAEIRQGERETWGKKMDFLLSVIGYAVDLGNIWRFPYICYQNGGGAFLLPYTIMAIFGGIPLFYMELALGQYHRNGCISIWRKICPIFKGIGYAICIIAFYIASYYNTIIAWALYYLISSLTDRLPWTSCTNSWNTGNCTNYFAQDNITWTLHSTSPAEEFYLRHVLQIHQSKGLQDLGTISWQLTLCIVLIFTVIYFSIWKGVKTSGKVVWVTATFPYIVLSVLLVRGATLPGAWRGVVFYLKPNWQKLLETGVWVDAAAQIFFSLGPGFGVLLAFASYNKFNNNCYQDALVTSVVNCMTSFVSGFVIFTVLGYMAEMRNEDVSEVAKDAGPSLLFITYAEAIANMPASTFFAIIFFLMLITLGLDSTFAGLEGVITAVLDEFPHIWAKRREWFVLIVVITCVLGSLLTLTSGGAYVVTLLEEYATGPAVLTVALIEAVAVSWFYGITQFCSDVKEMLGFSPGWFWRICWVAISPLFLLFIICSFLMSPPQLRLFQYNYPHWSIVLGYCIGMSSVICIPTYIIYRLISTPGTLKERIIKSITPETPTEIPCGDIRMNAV
The assay can be described thus: Inhibition of serotonin (5HT) reuptake in synaptosomes from rat brain. The class given is biochemical. The settings on record: test concentration of 10 μM; read-out: 5-HT (inhibition of reuptake of serotonin, % inhibition). In short, it runs like this:
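Compounds screened at 10 μM and reported as percent inhibition of serotonin uptake. Uptake measured in a freshly prepared P2 synaptosomal fraction from rat brain.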

T1 sequence (P35372 whole entry): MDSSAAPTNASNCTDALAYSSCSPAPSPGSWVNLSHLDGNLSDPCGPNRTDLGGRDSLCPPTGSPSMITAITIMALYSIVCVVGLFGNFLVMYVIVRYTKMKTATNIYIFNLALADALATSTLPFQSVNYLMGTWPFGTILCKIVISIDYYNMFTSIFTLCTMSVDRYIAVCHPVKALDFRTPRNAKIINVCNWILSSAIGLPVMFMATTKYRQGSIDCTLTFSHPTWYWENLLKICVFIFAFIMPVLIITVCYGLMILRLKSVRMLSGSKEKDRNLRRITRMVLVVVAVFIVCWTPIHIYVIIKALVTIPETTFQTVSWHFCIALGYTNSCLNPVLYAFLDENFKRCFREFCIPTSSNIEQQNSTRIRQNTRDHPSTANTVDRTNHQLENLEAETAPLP

As for `CN(C)C(c1cccs1)C1CCC(CNC(=O)COCCN(C)S(=O)(=O)c2ccc(Cl)cc2)CC1` (stereo not shown) [Example 55, 2-(2-(4-chloro-N-methylphenylsulfonamido)ethoxy)-N-((4-((dimethylamino)(thiophen-2-yl)methyl)cyclohexyl)methyl)acetamide], in assay [1], the inhibition at 1 µM was found to be 95%. Moreover, in assay [2], the inhibition at 10 µM stood at 92%.
For `COc1cc(C)c(S(=O)(=O)N2CCC(CCOCC(=O)NCCC3CCC(C(c4cccs4)N(C)C)CC3)CC2)c(C)c1C` (stereo not shown) [Example 75, N-(2-(4-((dimethylamino)(thiophen-2-yl)methyl)cyclohexyl)ethyl)-2-(2-(1-(4-methoxy-2,3,6-trimethylphenylsulfonyl)piperidin-4-yl)ethoxy)acetamide], the inhibition at 1 µM in assay [1] stood at 92%. Also, the inhibition at 10 µM in assay [2] was 96%.
For `COc1cc(C)c(S(=O)(=O)N2CCCC(OCC(=O)NCC3CCC(C(c4cccs4)N(C)C)CC3)C2)c(C)c1C` (stereo not shown) [Example 60, N-((4-((dimethylamino)(thiophen-2-yl)methyl)cyclohexyl)methyl)-2-(1-(4-methoxy-2,3,6-trimethylphenylsulfonyl)piperidin-3-yloxy)acetamide] the same measures were 95% and 92%.
With `Cc1ccc(S(=O)(=O)N(C)CCOCC(=O)NCC2CCC(C(c3cccs3)N(C)C)CC2)cc1` (stereo not shown) [Example 4, N-((4-((dimethylamino)(thiophen-2-yl)methyl)cyclohexyl)methyl)-2-(2-(N,4-dimethylphenylsulfonamido)ethoxy)acetamide], the inhibition at 1 µM in assay [1] turned out to be 99%. The inhibition at 10 µM in assay [2] was 92%.
Consider `COc1ccc(S(=O)(=O)N2Cc3ccccc3CC2COCC(=O)NC2CCC(C(c3ccccc3)N(C)C)CC2)cc1` (stereo not shown) [Example 38, N-(4-((dimethylamino)(phenyl)methyl)cyclohexyl)-2-((2-(4-methoxyphenylsulfonyl)-1,2,3,4-tetrahydroisoquinolin-3-yl)methoxy)acetamide], for which the inhibition at 1 µM in assay [1] turned out to be 96%. Moreover, the inhibition at 10 µM in assay [2] is 61%.
On to `CN(C)C(c1ccccc1)C1CCC(CNC(=O)COCCN(C)S(=O)(=O)c2ccc(OC(F)(F)F)cc2)CC1` (stereo not shown) [Example 53, N-((4-((dimethylamino)(phenyl)methyl)cyclohexyl)methyl)-2-(2-(N-methyl-4-(trifluoromethoxy)phenylsulfonamido)ethoxy)acetamide], for which the inhibition at 1 µM in assay [1] is 95%. In addition, the inhibition at 10 µM in assay [2] is 92%.
Turning to `COc1ccc(S(=O)(=O)N2CCCCC2CCOCC(=O)NC2CCC(C(c3cccc(F)c3)N(C)C)CC2)cc1` (stereo not shown) [Example 62, N-(4-((dimethylamino)(3-fluorophenyl)methyl)cyclohexyl)-2-(2-(1-(4-methoxyphenylsulfonyl)piperidin-2-yl)ethoxy)acetamide], in assay [1], the inhibition at 1 µM is 95%. In assay [2], the inhibition at 10 µM came to 96%.
As to `CN(C)C(c1cccs1)C1CCC(CNC(=O)COCCN(C)S(=O)(=O)c2ccc(F)cc2)CC1` (stereo not shown) [Example 56, N-((4-((dimethylamino)(thiophen-2-yl)methyl)cyclohexyl)methyl)-2-(2-(4-fluoro-N-methylphenylsulfonamido)ethoxy)acetamide], the inhibition at 1 µM in assay [1] amounted to 95%. The inhibition at 10 µM in assay [2] was 100%.
For the compound `COc1cc(C)c(S(=O)(=O)N2CCC(OCC(=O)NCC3CCC(C(c4cccs4)N(C)C)CC3)C2)c(C)c1C` (stereo not shown) [Example 58, N-((4-((dimethylamino)(thiophen-2-yl)methyl)cyclohexyl)methyl)-2-(1-(4-methoxy-2,3,6-trimethylphenylsulfonyl)pyrrolidin-3-yloxy)acetamide], the inhibition at 1 µM in assay [1] is 95%. For the same compound, in assay [2], the inhibition at 10 µM turned out to be 94%.
For `CN(C)C(c1ccccc1)C1CCC(NC(=O)COC2CCCCC2N(C)S(=O)(=O)c2ccc(Cl)c(Cl)c2)CC1` (stereo not shown) [Example 39, 2-(2-(3,4-dichloro-N-methylphenylsulfonamido)cyclohexyloxy)-N-(4-((dimethylamino)(phenyl)methyl)cyclohexyl)acetamide], in assay [1], the inhibition at 1 µM turned out to be 96%. Moreover, the inhibition at 10 µM in assay [2] stood at 91%.
In the same order, the values of `COc1cc(C)c(S(=O)(=O)N2CCC(CCOCC(=O)NC3CCC(C(c4cccs4)N(C)C)CC3)CC2)c(C)c1C` (stereo not shown) [Example 5, N-(4-((dimethylamino)(thiophen-2-yl)methyl)cyclohexyl)-2-(2-(1-(4-methoxy-2,3,6-trimethylphenylsulfonyl)piperidin-4-yl)ethoxy)acetamide] are 99% and 87%.
